pIC50: −log10 of the molar value.
Biological target: T1, TNKS1 (Homo sapiens, UniProt O95271)
T1 sequence (O95271 1-1327): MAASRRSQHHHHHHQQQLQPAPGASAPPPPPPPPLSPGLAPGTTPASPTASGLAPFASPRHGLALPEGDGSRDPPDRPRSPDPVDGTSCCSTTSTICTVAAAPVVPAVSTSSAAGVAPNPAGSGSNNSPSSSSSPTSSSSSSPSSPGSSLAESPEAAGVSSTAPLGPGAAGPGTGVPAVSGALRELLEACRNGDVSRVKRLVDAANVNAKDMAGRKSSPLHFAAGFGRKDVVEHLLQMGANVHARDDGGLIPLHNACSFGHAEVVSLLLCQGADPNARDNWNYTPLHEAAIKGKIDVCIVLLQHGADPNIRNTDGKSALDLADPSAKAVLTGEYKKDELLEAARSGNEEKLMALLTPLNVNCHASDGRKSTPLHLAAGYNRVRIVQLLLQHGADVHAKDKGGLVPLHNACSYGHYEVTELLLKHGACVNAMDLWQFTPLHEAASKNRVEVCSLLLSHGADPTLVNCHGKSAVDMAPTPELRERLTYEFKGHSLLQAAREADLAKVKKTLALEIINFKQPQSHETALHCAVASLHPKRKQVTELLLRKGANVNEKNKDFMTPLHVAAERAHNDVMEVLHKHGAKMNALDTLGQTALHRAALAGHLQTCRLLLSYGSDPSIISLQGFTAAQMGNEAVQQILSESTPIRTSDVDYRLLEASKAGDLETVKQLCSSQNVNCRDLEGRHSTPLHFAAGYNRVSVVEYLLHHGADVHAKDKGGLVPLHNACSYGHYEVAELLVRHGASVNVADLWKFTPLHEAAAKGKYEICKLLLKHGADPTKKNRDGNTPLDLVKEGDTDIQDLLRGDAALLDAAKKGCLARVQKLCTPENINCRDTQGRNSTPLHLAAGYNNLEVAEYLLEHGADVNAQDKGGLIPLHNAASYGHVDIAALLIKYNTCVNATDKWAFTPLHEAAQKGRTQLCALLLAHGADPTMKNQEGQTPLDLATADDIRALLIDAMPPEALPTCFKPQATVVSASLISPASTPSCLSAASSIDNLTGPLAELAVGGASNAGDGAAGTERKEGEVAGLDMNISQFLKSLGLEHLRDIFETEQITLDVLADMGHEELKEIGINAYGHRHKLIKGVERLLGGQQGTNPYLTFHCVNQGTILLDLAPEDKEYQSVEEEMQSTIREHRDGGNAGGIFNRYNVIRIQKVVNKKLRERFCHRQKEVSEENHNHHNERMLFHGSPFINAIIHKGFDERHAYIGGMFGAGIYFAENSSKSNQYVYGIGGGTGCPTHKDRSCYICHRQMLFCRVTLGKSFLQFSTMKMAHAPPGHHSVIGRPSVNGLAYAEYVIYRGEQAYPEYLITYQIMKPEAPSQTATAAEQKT
Assay: Modified TNKS1 Assay 3 (BPS kit #80573, biotin-NAD+, 96 well)
Assay type: biochemical
Details: human TNKS1, BPS kit #80573, 96 well
Method: The potency of the compounds against human TNKS1 according to the invention was assessed using a commercially available biotin/streptavidin binding assay kits from BPS Bioscience, San Diego, USA (Catalog #80573 for TNKS1). The incorporation of a biotin-labeled NAD+ during the […] catalyzed ribosylation of a suitable protein substrate was detected using with a streptavidin-HRP coupled chemi-luminescent readout. The intensity of the readout signal is proportional to the incorporated NAD^+. Inhibition of TNKS1 leads to a decreased incorporation of NAD^+ and consequently to a lower readout signal intensity in the corresponding TNKS1 assays. The concentration of a test compound that inhibits the enzyme activity by 50% (corresponds to half of the normed readout signal intensity) is reported as IC50. The assay was conducted in a 96 well MTP format according to the manufacturer's protocol and using a BMG Pherastar MTP reader [BMG-Labtech, Offenburg, Germany].

Compound: CNC(=O)c1nc[nH]c1C(=O)Nc1ccc(NC(=O)c2ccc(F)cc2Cl)cc1 [Example 12, N^5-{4-[(2-chloro-4-fluorobenzoyl)amino]phenyl}-N^4-methyl-1H-imidazole-4,5-dicarboxamide]
- pIC50: 6.59

Compound: CNC(=O)c1nc[nH]c1C(=O)Nc1ccc(NC(=O)c2ccc(F)cc2Cl)nc1 [Example 16, N^5-{6-[(2-chloro-4-fluorobenzoyl)amino]pyridin-3-yl}-N^4-methyl-1H-imidazole-4,5-dicarboxamide]
- pIC50: 6.89

Compound: O=C(Nc1ccc(NC(=O)c2[nH]cnc2C(=O)NCC(F)(F)F)cc1)c1ccc(F)cc1Cl [Example 30, N^4-{4-[(2-chloro-4-fluorobenzoyl)amino]phenyl}-N^5-(2,2,2-trifluoroethyl)-1H-imidazole-4,5-dicarboxamide]
- pIC50: 6.40

Compound: CNC(=O)c1nc[nH]c1C(=O)Nc1ccc(NC(=O)c2c(F)cc(F)cc2Cl)cc1 [Example 118, N^5-{4-[(2-chloro-4,6-difluorobenzoyl)amino]phenyl}-N^4-methyl-1H-imidazole-4,5-dicarboxamide]
- pIC50: < 6.30

Compound: NC(=O)c1nc[nH]c1C(=O)Nc1ccc(NC(=O)c2ccc(F)cc2Cl)cc1 [Example 121]
- pIC50: < 6.30

Compound: CC1CCN(CCNC(=O)c2nc[nH]c2C(=O)Nc2ccc(NC(=O)c3ccc(F)cc3Cl)cc2)CC1 [Example 126, N^5-{4-[(2-chloro-4-fluorobenzoyl)amino]phenyl}-N^4-[2-(4-methylpiperidin-1-yl)ethyl]-1H-imidazole-4,5-dicarboxamide]
- pIC50: 8.70

Compound: COCCNC(=O)c1[nH]cnc1C(=O)Nc1ccc(NC(=O)c2ccc(F)cc2Cl)cc1 [Example 130, N^4-{4-[(2-chloro-4-fluorobenzoyl)amino]phenyl}-N^5-(2-methoxyethyl)-1H-imidazole-4,5-dicarboxamide]
- pIC50: 6.82

Compound: CC1CCCN(CCNC(=O)c2[nH]cnc2C(=O)Nc2ccc(NC(=O)c3ccc(F)cc3Cl)cc2)C1 (centres unmarked) [Example 208, N^4-{4-[(2-chloro-4-fluorobenzoyl)amino]phenyl}-N^5-[2-(3-methylpiperidin-1-yl)ethyl]-1H-imidazole-4,5-dicarboxamide]
- pIC50: 7.40

Compound: O=C(Nc1ccc(NC(=O)c2nc[nH]c2C(=O)NCCN2CCCCC2)cc1)c1ccc(F)cc1Br [Example 216, N^4-{4-[(2-bromo-4-fluorobenzoyl)amino]phenyl}-N^5-[2-(piperidin-1-yl)ethyl]-1H-imidazole-4,5-dicarboxamide]
- pIC50: 8.52

Compound: O=C(Nc1ccc(NC(=O)c2nc[nH]c2C(=O)NCCN2CCCC(F)C2)cc1)c1ccc(F)cc1Cl (centres unmarked) [Example 226, N^4-{4-[(2-chloro-4-fluorobenzoyl)amino]phenyl}-N^5-[2-(3-fluoropiperidin-1-yl)ethyl]-1H-imidazole-4,5-dicarboxamide]
- pIC50: 7.40

Compound: O=C(Nc1ccc(NC(=O)c2nc[nH]c2C(=O)NC2CCOC2)cc1)c1ccc(F)cc1Cl (centres unmarked) [Example 236, N^4-{4-[(2-chloro-4-fluorobenzoyl)amino]phenyl}-N^5-(tetrahydrofuran-3-yl)-1H-imidazole-4,5-dicarboxamide]
- pIC50: 6.37

Compound: CNC(=O)c1nc[nH]c1C(=O)Nc1ccc(NC(=O)c2cc(OC)c(OC)cc2Cl)cc1 [Example 240, N^5-{4-[(2-chloro-4,5-dimethoxybenzoyl)amino]phenyl}-N^4-methyl-1H-imidazole-4,5-dicarboxamide]
- pIC50: 7.70

Compound: CNC(=O)c1nc[nH]c1C(=O)Nc1ccc(NC(=O)c2cc(F)c(F)cc2Cl)cc1 [Example 242, N^5-{4-[(2-chloro-4,5-difluorobenzoyl)amino]phenyl}-N^4-methyl-1H-imidazole-4,5-dicarboxamide]
- pIC50: 6.42

Compound: CNC(=O)c1nc[nH]c1C(=O)Nc1ccc(NC(=O)c2ccc(C)cc2Cl)cc1 [Example 244, N^5-{4-[(2-chloro-4-methylbenzoyl)amino]phenyl}-N^4-methyl-1H-imidazole-4,5-dicarboxamide]
- pIC50: 6.82

— patent US9884063B2, “Amido-substituted azole compounds” (Bayer Pharma Aktiengesellschaft, priority 2014, dated 2018)
